In patent publication US5795907A, “Gastin and CCK receptor ligands” (James Black Foundation Limited, priority 1994, dated 1998):

How the values were obtained:
CCKA = molecular target: T1, CCKA (Cavia porcellus, UniProt Q63931); assay: CCKA radioligand binding assay in guinea-pig pancreas membranes ([125I]-CCK8(S)); conditions: PD134,308 present, 150 minutes at 21±3°; for Ki: read-out: CCKA pKi (converted)
T1 construct: The pancreatata were homogenised in 40 ml ice-cold HEPES buffer using a polytron; from tissue; host or cells: pancreas membranes of male Dunkin Hartley guinea-pigs
T1 sequence (Q63931 1-430): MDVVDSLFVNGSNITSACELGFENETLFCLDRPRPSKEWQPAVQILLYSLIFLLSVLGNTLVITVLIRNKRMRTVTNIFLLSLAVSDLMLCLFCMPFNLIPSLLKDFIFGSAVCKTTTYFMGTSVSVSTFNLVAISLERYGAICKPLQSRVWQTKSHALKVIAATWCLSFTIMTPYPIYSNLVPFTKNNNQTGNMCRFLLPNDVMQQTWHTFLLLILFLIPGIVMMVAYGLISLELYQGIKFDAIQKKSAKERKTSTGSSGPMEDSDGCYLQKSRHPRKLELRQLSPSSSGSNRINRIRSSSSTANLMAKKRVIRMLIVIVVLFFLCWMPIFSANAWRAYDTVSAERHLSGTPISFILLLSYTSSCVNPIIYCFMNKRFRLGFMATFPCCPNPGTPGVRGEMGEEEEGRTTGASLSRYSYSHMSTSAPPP
In short: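 Competition for [125I]-CCK8(S) (added as […] solution) ran for 150 min at 21±3° in HEPES pH 7.2. Membranes came from male guinea-pig pancreas at 1 mg/ml original wet weight, with 0.375 μM PD134,308 in the suspension. Filter-bound counts were gamma-counted; 100 nM L-364,718 (added solution) defined non-specific binding.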

CCKB receptor = molecular target: T2, CCKB receptor (Mus musculus, UniProt P56481); assay: CCKB receptor radioligand binding assay in mouse cortical membranes ([125I]-CCK8S); conditions: [125I]-CCK8S 200 pM, 150 min at 21±3°; for Ki: read-out: CCKB pKi (converted)
T2 construct: The cortex was dissected, weighed and homogenised in 40ml ice-cold buffer; tissue Charles River (supplier of the CD1 mice); host or cells: cerebral cortex membranes of male CD1 mice
T2 sequence (P56481 1-453): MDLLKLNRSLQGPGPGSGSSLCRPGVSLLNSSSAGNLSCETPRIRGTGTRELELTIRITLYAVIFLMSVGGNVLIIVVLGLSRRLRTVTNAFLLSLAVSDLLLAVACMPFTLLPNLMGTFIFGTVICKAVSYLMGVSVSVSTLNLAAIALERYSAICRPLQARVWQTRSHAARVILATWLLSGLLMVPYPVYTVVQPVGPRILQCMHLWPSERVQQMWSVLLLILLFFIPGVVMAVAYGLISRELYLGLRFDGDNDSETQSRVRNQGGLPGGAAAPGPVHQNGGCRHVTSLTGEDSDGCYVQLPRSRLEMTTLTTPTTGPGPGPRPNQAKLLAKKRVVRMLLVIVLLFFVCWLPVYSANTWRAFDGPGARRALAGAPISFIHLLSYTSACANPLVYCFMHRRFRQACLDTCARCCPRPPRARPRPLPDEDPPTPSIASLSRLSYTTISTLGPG
In short: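 This was competition binding with tracer [125I]-CCK8S (200 pM solution added), run for 150 min at 21±3° on male CD1 mouse cortex membranes in pH 7.2 HEPES buffer with bacitracin. Filtration then gamma counting gave bound radioactivity. L-365,260 set the non-specific level.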

gastrin = molecular target: T3, gastrin (Rattus norvegicus, UniProt P30553); assay: gastrin antagonist activity in an immature rat stomach assay (pentagastrin-stimulated acid secretion); conditions: cumulative pentagastrin dose-response curves after 60 min with drug; for Kb: read-out: Gastrin pKB (converted)
T3 construct: The stomach was lowered into a jacketed organ bath containing 40 ml of buffered solution; from tissue; host or cells: isolated perfused whole stomach of immature rats (ca. 21 days old)
T3 sequence (P30553 1-452): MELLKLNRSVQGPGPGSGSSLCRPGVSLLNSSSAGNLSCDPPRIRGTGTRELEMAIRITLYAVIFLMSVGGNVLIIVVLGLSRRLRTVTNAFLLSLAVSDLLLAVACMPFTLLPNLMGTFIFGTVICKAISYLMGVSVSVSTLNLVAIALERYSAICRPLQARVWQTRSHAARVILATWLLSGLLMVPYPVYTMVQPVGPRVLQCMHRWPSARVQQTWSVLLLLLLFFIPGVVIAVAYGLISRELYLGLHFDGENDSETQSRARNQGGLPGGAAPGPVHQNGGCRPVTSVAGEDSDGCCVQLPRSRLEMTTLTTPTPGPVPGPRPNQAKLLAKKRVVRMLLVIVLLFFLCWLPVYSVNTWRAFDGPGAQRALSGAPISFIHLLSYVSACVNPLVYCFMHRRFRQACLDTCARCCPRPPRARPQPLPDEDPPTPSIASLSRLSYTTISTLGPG
Experimental: The compounds of the examples were also tested for gastrin antagonist activity in an immature rat stomach assay. The procedure was as follows:
The oesophagus of immature rats (33-50 g, ca. 21 days old) was ligated at the level of the cardiac sphincter and the duodenal sphincter was cannulated. The stomach was excised and flushed with ca. 1 ml of unbuffered physiological saline solution. The fundus was punctured and cannulated. A further 4-5 ml of unbuffered solution was flushed through the stomach to ensure the preparation was not leaking. The stomach was lowered into a jacketed organ bath containing 40 ml of buffered solution containing 3×10^-8 M 5-methylfurmethide, maintained at 37° and gassed vigorously with 95% O2 /5% CO2. The stomach was continuously perfused at a rate of 1 ml min^-1 with unbuffered solution gassed with 100% O2 with the perfusate passing over an internally referenced pH-electrode fixed 12 cm above the stomach.
After 120 min of stabilisation the drugs were added directly to the serosal solution in the organ bath and after a further 60 min cumulative pentagastrin dose-response curves were started. Changes in acid secretion were monitored and the curves analysed according to Black et.al., Br. J. Pharmacol., 1985, 86, 581.

Row | Compound | CCKA pKi (CCKA) | CCKB pKi (CCKB receptor) | Gastrin pKB (gastrin) | Ki (CCKA) | Ki (CCKB receptor) | Kb (gastrin)
1 | 5-(1S-(3,5-dicarboxyphenylaminocarbonyl)-2-phenylethylaminocarbonyl)-6-(1-adamantanemethylaminocarbonyl)-benzofuran [Example 122] | 5.4 | 8.3 | 9.1 |  |  | 
2 | 5-(1S-(3,5-dicarboxyphenylaminocarbonyl)-2-phenylethylaminocarbonyl)-6-(2,2-dimethylpropylaminocarbonyl)-indole and regioisomer with substituents at positions 5 and 6 reversed [Example 46] | 5.1 | 6.7 | 7.1 |  |  | 
3 | 5-(1S-(3,5-dicarboxyphenylaminocarbonyl)-2-phenylethylaminocarbonyl)-6-(cycloheptanemethylaminocarbonyl)-indole and regioisomer with substituents at positions 5 and 6 reversed [Example 42] | 5.5 | 7.8 | 9.3 |  |  | 
4 | 5-(1S-(3,5-dicarboxyphenylaminocarbonyl)-ethylaminocarbonyl)-6-(cycloheptanemethylaminocarbonyl)-indole and regioisomer with substituents at positions 5 and 6 reversed [Example 58] | 5.0 | 6.5 | 7.5 |  |  | 
5 | 5-(1S-(3-methoxycarbonyl-5-carboxy-phenylaminocarbonyl)-2-phenylethylaminocarbonyl)-6-(1-adamantanemethylaminocarbonyl)-indole and regioisomer with substituents at positions 5 and 6 reversed [Example 40] | 6.3 | 6.8 | 7.3 |  |  | 
6 | 5-(1S-(3-methoxycarbonyl-5-pivaloyloxymethyloxycarbonyl-phenylaminocarbonyl)-2-phenylethylaminocarbonyl)-6-(1-adamantanemethylaminocarbonyl)-indole and regioisomer with substituents at positions 5 and 6 reversed [Example 39] | 4.9 | 6.4 | 6.8 |  |  | 
7 | 5-(1S-(trans 3,4-dicarboxypyrrolidinocarbonyl)-2-phenylethylaminocarbonyl)-6-(1-adamantanemethylaminocarbonyl)-indole and regioisomer with substituents at positions 5 and 6 reversed [Example 50] | 6.1 | 6.6 | 6.9 |  |  | 
8 | 5-(2R-(1R-carboxyethylaminocarbonyl)pyrrolidinocarbonyl)-6-(1-adamantanemethylaminocarbonyl)-indole [Example 89] | 5.1 | 6.2 | 6.8 |  |  | 
9 | O=C(O)c1cc(NC(=O)[C@H](Cc2ccccc2)NC(=O)C2Cc3[nH]cnc3CN2C(=O)NCC23CC4CC(CC(C4)C2)C3)cc(C(=O)O)c1 (mixture of isomers) [Example 126, (±)-6-(1S-(3,5-dicarboxyphenylaminocarbonyl)-2-phenylethylaminocarbonyl)-5-(1-adamantanemethylaminocarbonyl)-4,5,6,7-tetrahydro-5-aza-benzimidazole] |  |  |  | 5010 nM | 501 nM | 100 nM
10 | O=C(O)c1cc(NC(=O)C(Cc2ccc(F)cc2F)NC(=O)c2cc3[nH]cnc3cc2C(=O)NCC23CC4CC(CC(C4)C2)C3)cc(C(=O)O)c1 (racemic) [Example 85, (±)-5-(1-(3,5-dicarboxyphenylaminocarbonyl)-2-(2,4-difluorophenyl)ethylaminocarbonyl)-6-(1-adamantanemethylaminocarbonyl)-benzimidazole] |  |  |  | 3160 nM | 5.01 nM | 1.26 nM
